Test results taken from US20240409585A1, “MACROCYCLIC IMMUNOMODULATORS” (priority 2021, published 2024).
Numbered stars: 1 amine (or outer) side, 2 acyl side, 3 side chain; on linkers, the order of the positions; unused ones are H or OH. Bridge positions count the residues as written; N and C are the ends. Square brackets hold non-standard residues; d marks the D form. Peptide text beside a SMILES is read from it. * marks the point of attachment. ξ: configuration not given here. X47 = O=C([C@H](Cc1ccc(-c2cccc(OC(F)(F)F)c2)cc1)N[*:1])[*:2]; Phe(3,4-F2) = N[C@@H](Cc1ccc(F)c(F)c1)C(=O)O; Bip = N[C@@H](Cc1ccc(-c2ccccc2)cc1)C(=O)O; Phe(4-CN) = N#Cc1ccc(C[C@H](N)C(=O)O)cc1; Phe(3-Me) = Cc1cccc(C[C@H](N)C(=O)O)c1; Val(3-OH) = CC(C)(O)[C@H](N)C(=O)O; 2Pal = N[C@@H](Cc1ccccn1)C(=O)O; Cha = N[C@@H](CC1CCCCC1)C(=O)O; Cit = NC(=O)NCCC[C@H](N)C(=O)O; Ile(3ξ) = CCC(C)[C@H](N)C(=O)O; Thr(3ξ) = CC(O)[C@H](N)C(=O)O; Carboxymethyl = O=C(O)C*; NMeA = CN[C@@H](C)C(=O)O; Orn = NCCC[C@H](N)C(=O)O; Dab = NCC[C@H](N)C(=O)O; Dap = NC[C@H](N)C(=O)O; ξC = NC(CS)C(=O)O; Acm = CC(=O)NC*

Target: T1, PE-labeled human PD-L1-Ig binding to Jurkat cell line over-expressing human PD-1 (Jurkat-PD-1) (Homo sapiens, UniProt Q15116)
T1 construct: expressed in transfected cells; host or cells: Jurkat
Assay: Jurkat-PD-1 Cell Binding High-Content Screening Assay (CBA): Method 1
Conditions: Jurkat-hPD-1 cells, PE-labeled PD-L1-Ig 20 nM final; read-out: Jurkat HPDL1 PD1 IC50 (uM) (Method 1)

T1 sequence (Q15116 25-288): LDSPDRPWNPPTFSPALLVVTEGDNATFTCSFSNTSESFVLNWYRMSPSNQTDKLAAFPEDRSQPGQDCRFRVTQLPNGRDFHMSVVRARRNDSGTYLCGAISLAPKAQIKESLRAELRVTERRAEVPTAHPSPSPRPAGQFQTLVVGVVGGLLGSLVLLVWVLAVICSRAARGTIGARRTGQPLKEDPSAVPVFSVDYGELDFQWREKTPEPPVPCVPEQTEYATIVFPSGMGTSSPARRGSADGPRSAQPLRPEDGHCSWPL

Q: Which IC50 does the source give for `CC(C)C[C@@H]1NC(=O)[C@H](CCCNC(=N)N)NC(=O)[C@@H](Cc2ccccc2)NC(=O)[C@H](C)N(C)C(=O)[C@H](CCCNC(=N)N)NC(=O)[C@H](Cc2ccc(-c3ccccc3)cc2)NC(=O)[C@H](C(C)C)NC(=O)[C@H](Cc2c[nH]c3ccccc23)NC(=O)[C@H](CC(=O)O)NC(=O)[C@H](Cc2ccc(O)cc2)NC(=O)[C@H](CCC(N)=O)NC(=O)CSC[C@@H](C(=O)N[C@@H](C)C(N)=O)NC(=O)[C@H](CO)NC(=O)[C@H](C(C)C)NC1=O` [Compound 1043] ({CH2CO}-QYDWV[Bip]R[NMeA][dF]RLVSCA-NH2; thioether N-14) here?
A: 0.17 µM

Q: Which IC50 does the source give for `CC(C)C[C@@H]1NC(=O)[C@H](CCN)NC(=O)[C@@H](CC(C)C)NC(=O)[C@H](C)N(C)C(=O)[C@H](CCCNC(N)=O)NC(=O)[C@H](Cc2ccc(-c3ccccc3)cc2)NC(=O)[C@H](C(C)C)NC(=O)[C@H](Cc2c[nH]c3ccccc23)NC(=O)[C@H](CC(=O)O)NC(=O)[C@H](Cc2ccc(C#N)cc2)NC(=O)[C@H](CC(N)=O)NC(=O)CSC[C@@H](C(=O)N[C@@H](C)C(N)=O)NC(=O)[C@H]([C@@H](C)O)NC(=O)[C@H](C(C)C)NC1=O` [Compound 1312] ({CH2CO}-N[Phe(4-CN)]DWV[Bip][Cit][NMeA][dL][Dab]LVTCA-NH2; thioether N-14) here?
A: 0.05 µM

Q: Which IC50 does the source give for `CC(C)C[C@@H]1NC(=O)[C@H](CCN)NC(=O)[C@@H](CC(C)C)NC(=O)[C@H](C)N(C)C(=O)[C@H](CCCNC(=N)N)NC(=O)[C@H](Cc2ccc(-c3cccc(OC(F)(F)F)c3)cc2)NC(=O)[C@H](C(C)C)NC(=O)[C@H](Cc2c[nH]c3ccccc23)NC(=O)[C@H](CC(=O)O)NC(=O)[C@H](Cc2ccc(O)cc2)NC(=O)[C@H](CC(N)=O)NC(=O)CSC[C@@H](C(=O)N[C@@H](C)C(N)=O)NC(=O)[C@H]([C@@H](C)O)NC(=O)[C@H](C(C)C)NC1=O` [Compound 1228] ({CH2CO}-NYDWV[X47]R[NMeA][dL][Dab]LVTCA-NH2; thioether N-14) here?
A: 0.9 µM

Q: With `CC(C)C[C@@H]1NC(=O)[C@H](CCN)NC(=O)[C@@H](CC(C)C)NC(=O)[C@H](C)N(C)C(=O)[C@H](CO)NC(=O)[C@H](Cc2ccc(-c3ccccc3)cc2)NC(=O)[C@H](C(C)C)NC(=O)[C@H](Cc2c[nH]c3ccccc23)NC(=O)[C@H](CC(=O)O)NC(=O)[C@H](Cc2ccc(O)cc2)NC(=O)[C@H](CC(N)=O)NC(=O)CSC[C@@H](C(=O)N[C@@H](C)C(N)=O)NC(=O)[C@H]([C@@H](C)O)NC(=O)[C@H](C(C)C)NC1=O` [Compound 1261] ({CH2CO}-NYDWV[Bip]S[NMeA][dL][Dab]LVTCA-NH2; thioether N-14) as the compound, how does the IC50 read?
A: 0.08 µM

Q: `CC(C)C[C@@H]1NC(=O)[C@H](CCCNC(=N)N)NC(=O)[C@@H](CC(C)C)NC(=O)[C@H](C)N(C)C(=O)[C@H](CCC(=O)O)NC(=O)[C@H](Cc2ccc(-c3ccccc3)cc2)NC(=O)[C@H](C(C)C)NC(=O)[C@H](Cc2c[nH]c3ccccc23)NC(=O)[C@H](CC(=O)O)NC(=O)[C@H](Cc2ccc(O)cc2)NC(=O)[C@H](CC(N)=O)NC(=O)CSC[C@@H](C(=O)N[C@@H](C)C(N)=O)NC(=O)[C@H]([C@@H](C)O)NC(=O)[C@H](C(C)C)NC1=O` [Compound 1254] ({CH2CO}-NYDWV[Bip]E[NMeA][dL]RLVTCA-NH2; thioether N-14) was tested. Which IC50 did it give?
A: 0.03 µM

Q: Which IC50 does the source give for `CC(C)C[C@@H]1NC(=O)[C@H](CCN)NC(=O)[C@@H](CC(C)C)NC(=O)[C@H](C)N(C)C(=O)[C@H](CCC(=O)O)NC(=O)[C@H](Cc2ccc(-c3ccccc3)cc2)NC(=O)[C@H](C(C)C)NC(=O)[C@H](Cc2c[nH]c3ccccc23)NC(=O)[C@H](CC(=O)O)NC(=O)[C@H](Cc2ccc(OCC(=O)O)cc2)NC(=O)[C@H](CC(N)=O)NC(=O)CSC[C@@H](C(=O)N[C@@H](C)C(N)=O)NC(=O)[C@H]([C@@H](C)O)NC(=O)[C@H](C(C)C)NC1=O` [Compound 1390] ({CH2CO}-NY(Carboxymethyl)DWV[Bip]E[NMeA][dL][Dab]LVTCA-NH2; thioether N-14) here?
A: 0.11 µM

Q: Which IC50 does the source give for `CC(=O)NCSC[C@H](NC(=O)C1CSCC(=O)N[C@@H](Cc2ccc(OCC(=O)O)cc2)C(=O)N[C@@H](CSCNC(C)=O)C(=O)N[C@@H](CC(=O)O)C(=O)N[C@@H](Cc2cccc(C)c2)C(=O)N[C@@H](CC(C)C)C(=O)N[C@@H](Cc2ccc(-c3ccccc3)cc2)C(=O)N[C@@H](C(C)C)C(=O)N(C)[C@@H](C)C(=O)N[C@H](CC(C)C)C(=O)N[C@@H](CC(N)=O)C(=O)N[C@@H](CC(C)C)C(=O)N[C@@H](C(C)C)C(=O)N[C@@H](CO)C(=O)N1)C(N)=O` (stereo partly drawn) [Compound 1889] ({CH2CO}-Y(Carboxymethyl)C(Acm)D[Phe(3-Me)]L[Bip]V[NMeA][dL]NLVS[ξC]C(Acm)-NH2; thioether N-14) here?
A: 0.03 µM

Q: Which IC50 does the source give for `CCC(C)[C@@H]1NC(=O)[C@H](Cc2ccc(-c3ccccc3)cc2)NC(=O)[C@H](CC(C)C)NC(=O)[C@H](Cc2c[nH]c3ccccc23)NC(=O)[C@H](CC(=O)O)NC(=O)[C@H](Cc2ccc(OCC(=O)O)cc2)NC(=O)[C@H](C(C)O)NC(=O)CSC[C@@H](C(=O)N[C@@H](CC(N)=O)C(=O)O)NC(=O)[C@H](CN)NC(=O)[C@H](C(C)C)NC(=O)[C@H](CC(C)C)NC(=O)[C@H](CCN)NC(=O)[C@@H](CC(C)C)NC(=O)[C@H](C)N(C)C1=O` (stereo partly drawn) [Compound 2228] ({CH2CO}-[Thr(3ξ)]Y(Carboxymethyl)DWL[Bip][Ile(3ξ)][NMeA][dL][Dab]LV[Dap]CN-OH; thioether N-14) here?
A: 0.12 µM

Q: `CC(C)C[C@@H]1NC(=O)[C@H](CCCNC(=N)N)NC(=O)[C@@H](CC(C)C)NC(=O)[C@H](C)N(C)C(=O)[C@H](CCCNC(=N)N)NC(=O)[C@H](Cc2ccc(-c3ccccc3)cc2)NC(=O)[C@H](C(C)C)NC(=O)[C@H](Cc2ccc(F)c(F)c2)NC(=O)[C@H](CC(=O)O)NC(=O)[C@H](Cc2ccc(O)cc2)NC(=O)[C@H](CC(N)=O)NC(=O)CSC[C@@H](C(=O)N[C@@H](C)C(N)=O)NC(=O)[C@H]([C@@H](C)O)NC(=O)[C@H](C(C)C)NC1=O` [Compound 1194] ({CH2CO}-NYD[Phe(3,4-F2)]V[Bip]R[NMeA][dL]RLVTCA-NH2; thioether N-14) was tested. Which IC50 did it give?
A: 0.69 µM

Q: For `CC[C@H](C)[C@@H]1NC(=O)[C@H](Cc2ccc(-c3ccccc3)cc2)NC(=O)[C@H](C(C)C)NC(=O)[C@H](Cc2cccc(C)c2)NC(=O)[C@H](CC(=O)O)NC(=O)[C@H](Cc2ccc(O)cc2)NC(=O)[C@H](CC(N)=O)NC(=O)CSC[C@@H](C(=O)N[C@H](C)C(N)=O)NC(=O)[C@H](CCC(=O)O)NC(=O)[C@H](C(C)(C)O)NC(=O)[C@H](CC2CCCCC2)NC(=O)[C@H](CCN)NC(=O)[C@@H](CC(C)C)NC(=O)[C@H](C)N(C)C1=O` [Compound 1696] ({CH2CO}-NYD[Phe(3-Me)]V[Bip]I[NMeA][dL][Dab][Cha][Val(3-OH)]EC[dA]-NH2; thioether N-14), which IC50 is on record?
A: 0.01 µM

Q: For `CC(C)C[C@@H]1NC(=O)[C@H](CCN)NC(=O)[C@@H](CC(C)C)NC(=O)[C@H](C)N(C)C(=O)[C@H](CCC(=O)O)NC(=O)[C@H](Cc2ccc(-c3ccccc3)cc2)NC(=O)[C@H](C(C)C)NC(=O)[C@H](Cc2c[nH]c3ccccc23)NC(=O)[C@H](CC(=O)O)NC(=O)[C@H](Cc2ccc(O)cc2)NC(=O)[C@H](CC(N)=O)NC(=O)CSC[C@@H](C(=O)N[C@@H](C)C(N)=O)NC(=O)[C@H](CCCN)NC(=O)[C@H](C(C)C)NC1=O` [Compound 1238] ({CH2CO}-NYDWV[Bip]E[NMeA][dL][Dab]LV[Orn]CA-NH2; thioether N-14), which IC50 is on record?
A: 0.03 µM

Q: `Cc1cccc(C[C@@H]2NC(=O)[C@H](CC(=O)O)NC(=O)[C@H](Cc3ccc(OCC(=O)O)cc3)NC(=O)[C@H](Cc3ccc(OCC(=O)O)cc3)NC(=O)CSC[C@@H](C(N)=O)NC(=O)[C@H](CCC(=O)O)NC(=O)[C@H](C(C)C)NC(=O)[C@H](CC3CCCCC3)NC(=O)[C@H](CCN)NC(=O)[C@@H](CC(C)C)NC(=O)[C@H](C)N(C)C(=O)[C@H](Cc3ccc(OCC(=O)O)cc3)NC(=O)[C@H](Cc3ccc(-c4ccccc4)cc3)NC(=O)[C@H](Cc3ccc(OCC(=O)O)cc3)NC2=O)c1` [Compound 1657] ({CH2CO}-Y(Carboxymethyl)Y(Carboxymethyl)D[Phe(3-Me)]Y(Carboxymethyl)[Bip]Y(Carboxymethyl)[NMeA][dL][Dab][Cha]VEC-NH2; thioether N-14) was tested. Which IC50 did it give?
A: 0.05 µM

Q: Which IC50 does the source give for `CC[C@H](C)[C@@H]1NC(=O)[C@H](Cc2ccc(-c3ccccc3)cc2)NC(=O)[C@H](C(C)C)NC(=O)[C@H](Cc2c[nH]c3ccccc23)NC(=O)[C@H](CC(=O)O)NC(=O)[C@H](Cc2ccc(O)cc2)NC(=O)[C@H](CC(N)=O)NC(=O)CSC[C@@H](C(=O)N[C@@H](C)C(N)=O)NC(=O)[C@H]([C@@H](C)O)NC(=O)[C@H](C(C)C)NC(=O)[C@H](CC2CCCCC2)NC(=O)[C@H](CCCNC(=N)N)NC(=O)[C@@H](CC(C)C)NC(=O)[C@H](C)N(C)C1=O` [Compound 1495] ({CH2CO}-NYDWV[Bip]I[NMeA][dL]R[Cha]VTCA-NH2; thioether N-14) here?
A: 0.04 µM

Q: `CC(C)C[C@@H]1NC(=O)[C@H](Cc2c[nH]c3ccccc23)NC(=O)[C@H](CC(=O)O)NC(=O)[C@H](Cc2ccc(O)cc2)NC(=O)[C@H](Cc2ccccc2)NC(=O)CSC[C@@H](C(=O)N[C@@H](C)C(N)=O)NC(=O)[C@H](CO)NC(=O)[C@H](C(C)C)NC(=O)[C@H](CC(C)C)NC(=O)[C@H](CC(N)=O)NC(=O)[C@@H](C)NC(=O)[C@H](C)N(C)C(=O)[C@H](CCCNC(=N)N)NC(=O)[C@H](Cc2ccc(-c3ccccc3)cc2)NC1=O` [Compound 1781] ({CH2CO}-FYDWL[Bip]R[NMeA][dA]NLVSCA-NH2; thioether N-14) was tested. Which IC50 did it give?
A: 0.08 µM

Q: With `CC(C)C[C@@H]1NC(=O)[C@H](CCN)NC(=O)[C@@H](CC(C)C)NC(=O)[C@H](C)N(C)C(=O)[C@H](CCCNC(N)=O)NC(=O)[C@H](Cc2ccc(-c3ccccc3)cc2)NC(=O)[C@H](C(C)C)NC(=O)[C@H](Cc2c[nH]c3ccccc23)NC(=O)[C@H](CC(=O)O)NC(=O)[C@H](Cc2ccc(O)cc2)NC(=O)[C@H](Cc2ccccn2)NC(=O)CSC[C@@H](C(=O)N[C@@H](C)C(N)=O)NC(=O)[C@H]([C@@H](C)O)NC(=O)[C@H](C(C)C)NC1=O` [Compound 1327] ({CH2CO}-[2Pal]YDWV[Bip][Cit][NMeA][dL][Dab]LVTCA-NH2; thioether N-14) as the compound, how does the IC50 read?
A: 0.08 µM
